Source: ChEMBL document CHEMBL3871294, “Synthesis of novel substituted pyrimidine derivatives bearing a sulfamide group and their in vitro cancer growth inhibition activity” (Bioorg Med Chem Lett, 2017)

Key:
[1] = Antiproliferative activity against estrogen dependent human MCF7 cells after 48 hrs by SRB assay; assay type: functional; settings: MCF7, 48 h
[2] = Antiproliferative activity against human HT-29 cells after 48 hrs by SRB assay; assay type: functional; settings: HT-29, 48 h
[3] = Antiproliferative activity against human M21 cells after 48 hrs by SRB assay; assay type: functional; settings: M21, 48 h
[4] = Antiproliferative activity against human MDA-MB-231 cells; assay type: functional
[5] = Antiproliferative activity against human MDA-MB-468 cells; assay type: functional
[6] = Antiproliferative activity against human HaCaT cells; assay type: cell-based
[7] = Antiproliferative activity against neonatal-NHDF cells; assay type: cell-based; settings: human
[8] = Antiproliferative activity against human T47D cells; assay type: functional
[9] = Antiproliferative activity against human SKBR3 cells; assay type: functional; settings: SK-BR-3

| Compound | GI50 [1] | GI50 [2] | GI50 [3] | GI50 [4] | GI50 [5] | GI50 [6] | GI50 [7] | GI50 [8] | GI50 [9] |
| --- | --- | --- | --- | --- | --- | --- | --- | --- | --- |
| NS(=O)(=O)NCC1CCN(c2cc(-c3ccc(C(F)(F)F)cc3)ncn2)CC1 | 22.5 µM | 29.1 µM | 43.1 µM |  |  |  |  |  |  |
| NS(=O)(=O)NCC1CCN(c2cc(-c3ccccc3Cl)ncn2)CC1 | 62.4 µM | > 100 µM | > 100 µM | > 100 µM | > 100 µM | > 100 µM | 93 µM | 65.5 µM | > 100 µM |
| CCOC(=O)c1ccc(-c2cc(N3CCC(CCNS(N)(=O)=O)CC3)ncn2)cc1 | 6.2 µM | 6.8 µM | 9 µM |  |  |  |  |  |  |
| NS(=O)(=O)NCCC1CCN(c2cc(-c3ccc(Cl)cc3)ncn2)CC1 | 19.7 µM | 30.5 µM | 45.2 µM |  |  |  |  |  |  |
| NS(=O)(=O)NCC1CCN(c2cc(-c3ccccc3F)ncn2)CC1 | 48.5 µM | 80.4 µM | > 100 µM |  |  |  |  |  |  |
| COC(=O)c1ccc(-c2cc(N3CCC(CCNS(N)(=O)=O)CC3)ncn2)cc1 | 17.6 µM | 19.6 µM | 19.6 µM |  |  |  |  |  |  |
| Cc1ccc(-c2cc(N3CCC(CCNS(N)(=O)=O)CC3)ncn2)cc1 | 47.5 µM | 52.3 µM | 57.6 µM |  |  |  |  |  |  |
| COc1ccc(-c2cc(N3CCC(CCNS(N)(=O)=O)CC3)ncn2)cc1 | 56.6 µM | 72.3 µM | 69.8 µM |  |  |  |  |  |  |
| NS(=O)(=O)NCC1CCN(c2cc(-c3cccc4ccccc34)ncn2)CC1 | 12.1 µM | 6.8 µM | 6.6 µM |  |  |  |  |  |  |
| COc1ccccc1-c1cc(N2CCC(CCNS(N)(=O)=O)CC2)ncn1 | 69.8 µM | 74.3 µM | 96.9 µM |  |  |  |  |  |  |
| CCCCc1ccc(-c2cc(N3CCC(CCNS(N)(=O)=O)CC3)ncn2)cc1 | 11.3 µM | 13.3 µM | 15.1 µM |  |  |  |  |  |  |
| NS(=O)(=O)NCC1CCN(c2cc(-c3ccccc3)ncn2)CC1 | 34.3 µM | > 100 µM | > 100 µM | > 100 µM | > 100 µM | > 100 µM | > 100 µM | 24.1 µM | > 100 µM |
| CC(C)(C)c1ccc(-c2cc(N3CCC(CCNS(N)(=O)=O)CC3)ncn2)cc1 | 13.1 µM | 10.3 µM | 18.4 µM |  |  |  |  |  |  |
| NS(=O)(=O)NCCC1CCN(c2cc(-c3cccc(Cl)c3)ncn2)CC1 | 31.2 µM | 31.6 µM | 50.7 µM |  |  |  |  |  |  |
| CCOC(=O)c1ccc(-c2cc(N3CCC(CNS(N)(=O)=O)CC3)ncn2)cc1 | 4.1 µM | 5.7 µM | 5 µM |  |  |  |  |  |  |
| CC(C)(C)c1ccc(-c2cc(N3CCC(CNS(N)(=O)=O)CC3)ncn2)cc1 | 19.7 µM | 8.9 µM | 19.3 µM |  |  |  |  |  |  |
| NS(=O)(=O)NCC1CCN(c2cc(-c3ccc(Cl)cc3)ncn2)CC1 | 25.5 µM | 37.7 µM | 50.3 µM |  |  |  |  |  |  |
| COC(=O)c1ccc(-c2cc(N3CCC(CNS(N)(=O)=O)CC3)ncn2)cc1 | 17.7 µM | 22.9 µM | 14.1 µM |  |  |  |  |  |  |
| COc1ccc(-c2cc(N3CCC(CNS(N)(=O)=O)CC3)ncn2)cc1 | 35.3 µM | > 100 µM | > 100 µM | > 100 µM | > 100 µM | > 100 µM | 77 µM | 24.5 µM | > 100 µM |
| NS(=O)(=O)NCCC1CCN(c2cc(-c3ccccc3F)ncn2)CC1 | > 100 µM | 51.8 µM | 81.8 µM |  |  |  |  |  |  |
| NS(=O)(=O)NCCC1CCN(c2cc(-c3cccc4ccccc34)ncn2)CC1 | 5.9 µM | 3.5 µM | 1.8 µM |  |  |  |  |  |  |
| COc1ccccc1-c1cc(N2CCC(CNS(N)(=O)=O)CC2)ncn1 | 10.1 µM | > 100 µM | > 100 µM | > 100 µM | > 100 µM | > 100 µM | > 100 µM | > 100 µM | > 100 µM |
| NS(=O)(=O)NCCC1CCN(c2cc(-c3ccccc3)ncn2)CC1 | 53.2 µM | 66.5 µM | > 100 µM |  |  |  |  |  |  |
| NS(=O)(=O)NCC1CCN(c2cc(-c3cccc(Cl)c3)ncn2)CC1 | 47.1 µM | 47.5 µM | 62.5 µM |  |  |  |  |  |  |
| Cc1ccc(-c2cc(N3CCC(CNS(N)(=O)=O)CC3)ncn2)cc1 | 30.6 µM | 33.9 µM | 71 µM |  |  |  |  |  |  |
| CCCCc1ccc(-c2cc(N3CCC(CNS(N)(=O)=O)CC3)ncn2)cc1 | 21.8 µM | 15.2 µM | 47.2 µM |  |  |  |  |  |  |
| NS(=O)(=O)NCCC1CCN(c2cc(-c3ccc(C(F)(F)F)cc3)ncn2)CC1 | 15.2 µM | 22.6 µM | 34.8 µM |  |  |  |  |  |  |
| NS(=O)(=O)NCCC1CCN(c2cc(-c3ccccc3Cl)ncn2)CC1 | 44.8 µM | 52.9 µM | 93.9 µM |  |  |  |  |  |  |
